How the values were obtained:
[1] = 530 nm LED, 150 mW cm^−2
Description: This example illustrates cell binding triggered by TTA-UC. Photo-triggered binding of NPTTA-c[R]GDfK to cells by flow cytometry and confocal microscopy, was studied with micelles in which a hydrophilic dye, Lissamine™ rhodamine B (LRB), was covalently bound to the PLA-PEG copolymer (forming PLA-PEG-LRB; FIG. 16).

[2] = Photocleavage of c[R]GDfK molecule (400 nm LED, HPLC); type: physicochemical; conditions: PBS
Protocol: Construction of photo-targeted polymeric micelles. […] The identity of the peaks was further confirmed by mass spectrometry. Approximately 86% of cleavage occurred within 30 s of irradiation at 50 mW cm^−2 (FIG. 2C). At an irradiance as low as 2.3 mW cm^−2, ˜42% of c[R]GDfK was cleaved after 2 min of irradiation.
FIG. 2A. Photocleavage of c[R]GDfK. […] FIG. 2B. UV-visible absorption and fluorescence emission spectra of c[R]GDfK in PBS (pH 7.4). The excitation wavelength for the fluorescence spectrum was 385 nm. FIG. 2C. Photocleavage rate of c[R]GDfK in PBS, as determined by HPLC (detected at 390 nm), after continuous irradiation with 400 nm LED light at 2.3 mW cm^−2 and 50 mW cm^−2 (data are mean+/−SD; n=4). a.u.=arbitrary units. […]
Photocleavage of c[R]GDfK molecule. A disposable macro fluorescence cuvette containing 400 microliters of c[R]GDfK PBS solution (50 microgram/mL) was irradiated under an 11-mm LED (400 nm) collimator with a Multi-channel Universal LED controller (Mightex Systems, CA, USA). […] The LED irradiance was measured with a PM100USB Power and Energy Meter (ThorLabs, NJ, USA). At each irradiation time point, 50 microliters of the irradiated solution was analyzed by reverse-phase high-performance liquid chromatography (RP-HPLC) with an Agilent 1260 Infinity LC system and a Poroshell 120 EC-C18 column (4.6×100 mm) (Agilent Technologies, CA, USA). […]

[3] = Photocleavage of DEACM from NPTTA-c[R]GDfK (530 nm LED, centrifugal filtrate); type: physicochemical; conditions: HPLC of filtrate
Protocol: Photocleavage of DEACM from NPTTA-c[R]GDfK. One milliliter of NPTTA-c[R]GDfK solution (1 mg mL^−1) was put in a quartz cuvette and irradiated with LED light (530 nm, 150 mW cm^−2). At each irradiation time, the solution was put in an Amicon® Ultra centrifugal filter (50,000 Da cut-off) and centrifuged at 4000 rmp for 15 min. […]
Photocleavage of DEACM from NPTTA-c[R]GDfK. […] At each irradiation time, the solution was transferred into an Amicon® Ultra centrifugal filter (MWCO: 50,000 Da) and centrifuged at 4000 rmp for 15 min. […]

CCN(CC)c1ccc2c(-c3ccc(S(=O)(=O)NCCN)cc3S(=O)(=O)O)c3ccc(=[N+](CC)CC)cc-3oc2c1.O=C(O)C(F)(F)F [LRB, Lissamine™ rhodamine B ethylenediamine]
photostable under irradiation, time [1]: at least 10 min

c[R]GDfK
c[R]GDfK cleaved ([2]; 2.3 mW cm^−2, after 2 min): ~42% | cleavage of c[R]GDfK ([2]; 50 mW cm^−2, within 30 s, 50 microgram/mL): Approximately 86% | photocleavage of DEACM on 530 nm irradiation [3]: did not cleave DEACM from c[R]GDfK
